Data: PMC5653977 (EMBO Molecular Medicine, 2017)

Tests used:
[1] = molecular target: EGFR-NTEV-tevS-GV + ERBB3-CTEV (Homo sapiens, UniProt P00533+P21860); assay: ERBB dimerization split TEV assay EGFR/ERBB3; type: cell-based; settings: 10 ng/ml EGFld
From the text: Gateway recombination cloning (Life Technologies) was applied for generating plasmids. Each ORF cloned was PCR‐amplified using the Pwo proofreading DNA polymerase (Roche) and BP‐recombined into the pDONR/Zeo plasmid (Life Technologies) to yield an entry vector, which was control‐digested using BsrGI to release the insert, and sequence‐verified. The following human ORFs were cloned using cDNA image clones ordered from Source BioScience: ERBB4 transcript variant JM‐a/CYT‐1 (Accession: BC112199), PIK3R1 (BC094795), GRB2 transcript variant 1 (BC000631), SHC1 transcript variant 2 (BC014158), STAT5A (BC027036), and SRC transcription variant 1 (BC051270). For EGFR, ERBB2, and ERBB3, entry vectors were obtained from the human CCSB kinase collection available from Addgene (Johannessen et al, 2010). Entry vectors were LR‐recombined into split TEV destination vectors [either pcDNA_attR1‐ORF‐attR2‐NTEV‐tevS‐GV‐2xHA_DEST or pTag4C_attR1‐ORF‐attR2‐CTEV‐2xHA_DEST, plasmids were described in detail before (Wehr et al, 2006)] to yield expression vectors, which were control‐digested using BsrGI. The plasmids for Nrg1 type I β1a and rat Nrg1 type III β1a have been described before (Wehr et al, 2006).

[2] = set-up: method as in Wu et al, 2012; settings: ref Wu et al, 2012; cited from earlier work
[3] = tested on: NRG1-ERBB4 signaling; assay: Nrg1-ERBB4-PIK3R1 split TEV co-culture compound screen of the NIH Clinical Collection; type: cell-based, human; settings: compounds at 10 μM, 24 h; PC12 split TEV assay cells co-cultured with Nrg1-expressing PC12 cells; analysed with cellHTS2
[4] = set-up: method as in Juruena et al, 2009; settings: ref Juruena et al, 2009; cited from earlier work
[5] = tested on: Nrg1-tg and wt mice; assay: Fear conditioning; type: in vivo, mouse; settings: 50 mg/kg s.c. daily
Description: For behavioral testing, age‐matched male mice (8–16 weeks) on C57Bl/6 background that constitutively overexpress the 2xHA‐tagged Nrg1 type III β1a isoform (Nrg1‐tg) under the control of the mouse Thy1.2 promoter (Velanac et al, 2012) and their wild‐type (wt) littermates as controls were used. Animals were group‐housed in the same ventilated sound‐attenuated rooms under a 12‐h light/12‐h dark schedule (lights on at 8:00 am) at an ambient temperature of 21°C with food and water available ad libitum. One week prior to experiments, mice were separated into single cages and habituated to the experimental rooms. To minimize the influence of the circadian rhythm on drug actions, the treatment groups were analyzed at balanced time points during the light phase. […] All animal experiments were conducted in accordance with NIH principles of laboratory animal care and were approved by the Government of Lower Saxony, Germany, in accordance with the German Animal Protection Law.
(§1) Treatment was continued throughout the behavioral analysis period. To avoid injection‐induced stress prior to behavioral testing, mice were injected in the afternoon, after the entire cohort has completed the behavioral paradigm.

[6] = tested on: ERK; assay: Western blot of pERK in prefrontal cortex of spironolactone-treated mice; type: in vivo, mouse; settings: Nrg1-tg and wt mice, 50 mg/kg s.c. daily for 21 days, prefrontal cortex lysates
Description: For the generation of lysates, the isolated tissue was immediately placed into cooled (4°C) sucrose buffer (320 mM sucrose, 10 mM Tris–HCl, 1 mM NaHCO3, 1 mM MgCl2, supplemented with 10 mM NaF, 1 mM […], 1 mM ZnCl2, 4.5 mM Na4P20_7 as phosphatase inhibitors, and the complete protease inhibitor cocktail (Roche)), homogenized using an ultra‐turrax (IKA GmbH, Staufen, Germany), sonicated (3 pulses for 10 s), and denatured for 10 min at 70°C in LDS sample buffer.
Each blot was replicated two times.
as §1

Sequence of EGFR-NTEV-tevS-GV + ERBB3-CTEV (P00533 25-1210): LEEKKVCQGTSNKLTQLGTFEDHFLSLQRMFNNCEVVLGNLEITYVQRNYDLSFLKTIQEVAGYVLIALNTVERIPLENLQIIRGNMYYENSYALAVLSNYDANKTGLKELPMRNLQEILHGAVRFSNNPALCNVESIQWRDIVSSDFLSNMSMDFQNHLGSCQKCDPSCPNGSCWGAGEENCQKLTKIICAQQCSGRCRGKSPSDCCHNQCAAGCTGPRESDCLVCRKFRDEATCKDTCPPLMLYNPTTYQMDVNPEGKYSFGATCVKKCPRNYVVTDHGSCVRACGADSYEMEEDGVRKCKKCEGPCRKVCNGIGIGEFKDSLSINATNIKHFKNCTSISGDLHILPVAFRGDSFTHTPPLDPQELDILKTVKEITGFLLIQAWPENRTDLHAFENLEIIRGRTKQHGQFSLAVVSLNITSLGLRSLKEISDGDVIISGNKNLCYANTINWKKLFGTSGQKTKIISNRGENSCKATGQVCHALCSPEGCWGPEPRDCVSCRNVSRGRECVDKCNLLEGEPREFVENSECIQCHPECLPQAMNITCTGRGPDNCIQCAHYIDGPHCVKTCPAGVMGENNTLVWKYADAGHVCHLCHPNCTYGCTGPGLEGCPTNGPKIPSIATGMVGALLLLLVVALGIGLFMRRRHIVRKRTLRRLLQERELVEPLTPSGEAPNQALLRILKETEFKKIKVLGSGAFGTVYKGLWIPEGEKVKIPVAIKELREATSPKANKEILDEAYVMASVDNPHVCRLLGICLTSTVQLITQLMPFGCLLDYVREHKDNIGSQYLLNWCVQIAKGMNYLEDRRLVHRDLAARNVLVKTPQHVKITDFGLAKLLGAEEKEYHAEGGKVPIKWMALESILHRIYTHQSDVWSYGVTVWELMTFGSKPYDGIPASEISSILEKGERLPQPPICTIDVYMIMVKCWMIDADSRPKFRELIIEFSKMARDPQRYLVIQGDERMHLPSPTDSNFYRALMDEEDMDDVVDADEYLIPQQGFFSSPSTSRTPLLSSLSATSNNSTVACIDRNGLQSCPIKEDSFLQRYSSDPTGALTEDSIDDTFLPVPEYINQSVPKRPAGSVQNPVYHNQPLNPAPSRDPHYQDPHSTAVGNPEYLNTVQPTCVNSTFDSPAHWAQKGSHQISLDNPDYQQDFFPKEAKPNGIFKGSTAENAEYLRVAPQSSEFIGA
Sequence of EGFR-NTEV-tevS-GV + ERBB3-CTEV (P21860 20-1342): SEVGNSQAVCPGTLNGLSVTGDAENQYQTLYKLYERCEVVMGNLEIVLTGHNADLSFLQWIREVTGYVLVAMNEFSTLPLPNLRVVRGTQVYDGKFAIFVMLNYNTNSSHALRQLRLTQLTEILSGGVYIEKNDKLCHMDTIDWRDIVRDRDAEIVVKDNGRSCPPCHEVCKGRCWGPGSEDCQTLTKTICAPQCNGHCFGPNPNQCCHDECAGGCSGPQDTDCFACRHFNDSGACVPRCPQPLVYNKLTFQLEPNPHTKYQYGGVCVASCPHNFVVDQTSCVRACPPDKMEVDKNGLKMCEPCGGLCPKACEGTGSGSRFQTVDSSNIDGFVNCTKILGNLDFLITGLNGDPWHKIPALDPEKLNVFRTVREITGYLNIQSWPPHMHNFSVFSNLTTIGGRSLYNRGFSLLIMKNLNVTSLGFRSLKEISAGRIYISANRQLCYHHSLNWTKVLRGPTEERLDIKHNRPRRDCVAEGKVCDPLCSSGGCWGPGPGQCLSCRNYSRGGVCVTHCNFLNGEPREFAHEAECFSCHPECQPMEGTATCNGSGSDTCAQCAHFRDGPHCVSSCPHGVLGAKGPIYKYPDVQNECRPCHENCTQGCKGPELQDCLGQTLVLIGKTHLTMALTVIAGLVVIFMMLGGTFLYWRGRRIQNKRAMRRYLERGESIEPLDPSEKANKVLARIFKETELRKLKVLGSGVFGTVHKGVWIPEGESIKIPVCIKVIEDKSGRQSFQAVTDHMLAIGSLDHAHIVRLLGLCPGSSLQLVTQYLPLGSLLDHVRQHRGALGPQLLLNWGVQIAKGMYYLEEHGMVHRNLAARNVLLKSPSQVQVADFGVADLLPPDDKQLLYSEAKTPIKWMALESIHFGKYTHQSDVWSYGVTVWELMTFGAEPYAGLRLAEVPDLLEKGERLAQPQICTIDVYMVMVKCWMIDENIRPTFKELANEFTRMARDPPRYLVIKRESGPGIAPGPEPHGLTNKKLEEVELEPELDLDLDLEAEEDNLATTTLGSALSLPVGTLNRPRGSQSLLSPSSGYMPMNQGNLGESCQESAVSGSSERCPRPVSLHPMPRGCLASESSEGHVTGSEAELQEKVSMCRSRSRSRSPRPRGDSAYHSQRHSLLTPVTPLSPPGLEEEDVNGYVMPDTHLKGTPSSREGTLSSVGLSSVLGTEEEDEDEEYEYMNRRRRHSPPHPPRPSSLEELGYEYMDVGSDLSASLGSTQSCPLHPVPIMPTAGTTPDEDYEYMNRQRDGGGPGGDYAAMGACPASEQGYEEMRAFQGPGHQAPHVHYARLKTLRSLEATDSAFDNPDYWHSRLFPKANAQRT

Compound: CC(=O)S[C@@H]1CC2=CC(=O)CC[C@]2(C)[C@H]2CC[C@@]3(C)[C@@H](CC[C@@]34CCC(=O)O4)[C@H]12 [Spironolactone]
- IC50 [1]: 2810 nM
- motivation and curiosity in mice [2]: increase motivation and curiosity
- Z-SCORE [3]: 9.25
- anxiety in a small group of patients suffering from bipolar disorder [4]: partially improved
- cue memory [5]: neither genotype nor treatment‐dependent alterations
- freezing in the contextual fear memory test ([5]; Nrg1-tg mice): non‐significant reduction in freezing
- pERK (downstream signaling) [6]: neither modulated by Nrg1 overexpression, nor by spironolactone treatment
